Reference: US7547513B2, “Mutants of deoxycytidine kinase having extended enzymatic activity” (priority 2001, dated 2009)
Values after ≈ are worked out from the molar mass of the structure shown. Values joined by “and” are separate entries in the source; they are usually repeats but may differ in a detail not shown here. Identical values can stand only once.

What was measured:
[1] = system: Escherichia coli β7334 Δdeo tdk cdd::Tn10 pSUTrc (dck allele: none); type: cell-based; settings: strain β7334, dck allele none; 18 h 37° C., MS medium + IPTG
Description: (§1) The culture was then diluted 100 times in the same medium supplemented with IPTG and distributed on 96-well microplates in a final volume of 100 μl in a series of dilutions from to 2 to 2 nucleotide analogues. Each analogue was tested twice. After incubation for 18 hours at 37° C. with stirring, the MIC was determined as corresponding to the lowest analogue concentration for which no turbidity was detectable.
(§2) The toxicity of nucleoside analogues, deviating either by the sugar or by the base, was evaluated in strains of genotype Δdeo tdk cdd expressing on a plasmid the different dckH alleles, wild-type allele, D133E, R104Q and double mutant.
(§3) The minimum inhibitory concentrations, expressed in microM, were determined as indicated in the section Materials and Methods.

[2] = system: Escherichia coli β7338 Δdeo tdk cdd::Tn10 pSUDCK4 (dck:D133E-R104Q); type: cell-based; settings: strain β7338, dck allele D133E R104Q; 18 h 37° C., MS medium + IPTG
Description: as §1, §2, §3

[3] = system: Escherichia coli β7336 Δdeo tdk cdd::Tn10 pSUDCK2 (dck:D133E); type: cell-based; settings: strain β7336, dck allele D133E; 18 h 37° C., MS medium + IPTG
Description: The culture was then diluted 100 times in the same medium supplemented with IPTG and distributed on 96-well microplates in a final volume of 100 μl in a series of dilutions from to 2 to 2 nucleotide analogues. Each analogue was tested twice.
as §2, §3

[4] = system: Escherichia coli β7342 Δdeo tdk cdd::Tn10 (dckH R104Q, amkG wt); assay: microbe, parasite or virus in culture; type: cell-based; settings: for minimum inhibitory concentration (MIC): strain β7342, dckH R104Q, amkG wt
Description: as §1
(§4) We jointly expressed, within the genetic context Δdeo tdk cdd each of the four alleles of dckH with each of the two wt and T39A alleles of amkG, and tested the toxicity of the different nucleoside analogues already tested previously (Table 4 below).
as §3

[5] = system: Escherichia coli β7343 Δdeo tdk cdd::Tn10 (dckH D133E R104Q, amkG wt); assay: microbe, parasite or virus in culture; type: cell-based; settings: for minimum inhibitory concentration (MIC): strain β7343, dckH D133E R104Q, amkG wt
Description: as §1, §4, §3

[6] = system: Escherichia coli β7339 Δdeo tdk cdd::Tn10 (dckH none, amkG wt); assay: microbe, parasite or virus in culture; type: cell-based; settings: for minimum inhibitory concentration (MIC): strain β7339, dckH none, amkG wt
Description: as §1, §4, §3

[7] = system: Escherichia coli β7345 Δdeo tdk cdd::Tn10 (dckH wt, amkG T39A); assay: microbe, parasite or virus in culture; type: cell-based; settings: for minimum inhibitory concentration (MIC): strain β7345, dckH wt, amkG T39A
Description: as §1, §4, §3

[8] = system: Escherichia coli β7348 Δdeo tdk cdd::Tn10 (dckH D133E R104Q, amkG T39A); assay: microbe, parasite or virus in culture; type: cell-based; settings: for minimum inhibitory concentration (MIC): strain β7348, dckH D133E R104Q, amkG T39A
Description: as §1, §4, §3

[9] = system: Escherichia coli β7346 Δdeo tdk cdd::Tn10 (dckH D133E, amkG T39A); assay: microbe, parasite or virus in culture; type: cell-based; settings: for minimum inhibitory concentration (MIC): strain β7346, dckH D133E, amkG T39A
Description: as §1, §4, §3

[10] = system: Escherichia coli β7341 Δdeo tdk cdd::Tn10 (dckH D133E, amkG wt); assay: microbe, parasite or virus in culture; type: cell-based; settings: for minimum inhibitory concentration (MIC): strain β7341, dckH D133E, amkG wt
Description: as §1, §4, §3

[11] = system: Escherichia coli β7340 Δdeo tdk cdd::Tn10 (dckH wt, amkG wt); assay: microbe, parasite or virus in culture; type: cell-based; settings: for minimum inhibitory concentration (MIC): strain β7340, dckH wt, amkG wt
Description: as §1, §4, §3

[12] = system: Escherichia coli β7347 Δdeo tdk cdd::Tn10 (dckH R104Q, amkG T39A); assay: microbe, parasite or virus in culture; type: cell-based; settings: for minimum inhibitory concentration (MIC): strain β7347, dckH R104Q, amkG T39A
Description: as §1, §4, §3

[13] = system: Escherichia coli β7344 Δdeo tdk cdd::Tn10 (dckH none, amkG T39A); assay: microbe, parasite or virus in culture; type: cell-based; settings: for minimum inhibitory concentration (MIC): strain β7344, dckH none, amkG T39A
Description: as §1, §4, §3

[14] = system: bacteria of genotype Δdeo tdk p::dckH+ (β7134 cells); assay: Selection of the DCK mutants in vivo (mutagenesis of dck gene by promutagenic nucleosides); type: cell-based, Escherichia coli
Description: Selection of the DCK mutants in vivo: a 12-hour culture of the β7134 cells in MS medium supplemented with 50 mg/l of carbenicillin was diluted 100 times in the same medium and cultured with aeration until turbidity of 0.100 (600 nm) was reached. The culture was then diluted 25 times in the same medium with or without IPTG and supplemented with variable concentrations (5 to 30 μM) of the promutagenic nucleoside analogues disoG and disoA then cultured with aeration for 18 hours. The cells were rinsed then plated on MH dishes supplemented with trimethoprim, thymidine and IPTG. Colonies appeared after incubation for 36 hours at 37° C. No colony was obtained in the absence of nucleoside analogue.
We took advantage of the conditional mutating property of DCK in the presence of promutagenic nucleoside analogues in order to subject its own dck gene to an episode of mutagenesis in vivo. Thus, bacteria of genotype Δdeo tdk p::dckH+ were exposed either to 2′-deoxy-iso-adenosine (disoA) or to 2′ deoxy-iso-guanosine (disoG), then incubated on solid rich medium in the presence of trimethoprim and thymidine. Colonies appeared following the administration of the two compounds at a frequency of the order of 10^−8. No colony survived in the absence of promutagenic nucleoside.
These alleles are designated dckH*. A plasmid combining the two mutations in the same allele, dckH**, was constructed and introduced into the strain β7117 of genotype Δdeo tdk. This allowed the complementation of the tdk mutation, thus also expressing a thymidine kinase activity. The different alleles selected are itemized in Table 2 below.

[15] = Escherichia coli, read-out: minimum inhibitory concentration (MIC)

Row | Compound | minimum inhibitory concentration (MIC) [1] | minimum inhibitory concentration (MIC) [2] | minimum inhibitory concentration (MIC) [3] | minimum inhibitory concentration (MIC) [4] | minimum inhibitory concentration (MIC) [5] | minimum inhibitory concentration (MIC) [6] | minimum inhibitory concentration (MIC) [7] | minimum inhibitory concentration (MIC) [8] | minimum inhibitory concentration (MIC) [9] | minimum inhibitory concentration (MIC) [10] | minimum inhibitory concentration (MIC) [11] | minimum inhibitory concentration (MIC) [12] | minimum inhibitory concentration (MIC) [13] | other results
1 | OC[C@H]1O[C@@H](n2c(O)nc3c(O)ncnc32)C[C@@H]1O [8ho′dI, 8-hydroxy-hypoxanthine deoxyribonucleoside] | > (no toxicity could be detected at the highest analogue concentration, 1.28 mM) | > (no toxicity could be detected at the highest analogue concentration, 1.28 mM) | 1280 µM | > (no toxicity could be detected at the highest analogue concentration, 1280 microM) | > (no toxicity could be detected at the highest analogue concentration, 1280 microM) | > (no toxicity could be detected at the highest analogue concentration, 1280 microM) | > (no toxicity could be detected at the highest analogue concentration, 1280 microM) | > (no toxicity could be detected at the highest analogue concentration, 1280 microM) | 1280 µM (≈ 343 µg/mL) | 1280 µM (≈ 343 µg/mL) | > (no toxicity could be detected at the highest analogue concentration, 1280 microM) | > (no toxicity could be detected at the highest analogue concentration, 1280 microM) | > (no toxicity could be detected at the highest analogue concentration, 1280 microM) | 
2 | NC(=O)c1cn([C@H]2C[C@H](O)[C@@H](CO)O2)cn1 [dY, 1-(2′-deoxyribofuranosyl)imidazole-4-carboxamide] | > (no toxicity could be detected at the highest analogue concentration, 1.28 mM) | > (no toxicity could be detected at the highest analogue concentration, 1.28 mM) |  | > (no toxicity could be detected at the highest analogue concentration, 1280 microM) | > (no toxicity could be detected at the highest analogue concentration, 1280 microM) | > (no toxicity could be detected at the highest analogue concentration, 1280 microM) | > (no toxicity could be detected at the highest analogue concentration, 1280 microM) | > (no toxicity could be detected at the highest analogue concentration, 1280 microM) | 1280 µM (≈ 291 µg/mL) | > (no toxicity could be detected at the highest analogue concentration, 1280 microM) | > (no toxicity could be detected at the highest analogue concentration, 1280 microM) | > (no toxicity could be detected at the highest analogue concentration, 1280 microM) | > (no toxicity could be detected at the highest analogue concentration, 1280 microM) | 
3 | O=c1[nH]cnc2c1ncn2[C@H]1C[C@H](O)[C@@H](CO)O1 [dI, 2′-deoxyinoside] | > (no toxicity could be detected at the highest analogue concentration, 1.28 mM) | 320 µM | 1 µM and 1.25 µM | > (no toxicity could be detected at the highest analogue concentration, 1280 microM) | 1280 µM (≈ 323 µg/mL) | > (no toxicity could be detected at the highest analogue concentration, 1280 microM) | > (no toxicity could be detected at the highest analogue concentration, 1280 microM) | 1280 µM (≈ 323 µg/mL) | ≦1.25 microM | ≦1.25 microM | > (no toxicity could be detected at the highest analogue concentration, 1280 microM) | > (no toxicity could be detected at the highest analogue concentration, 1280 microM) | > (no toxicity could be detected at the highest analogue concentration, 1280 microM) | 
4 | Nc1nc(=O)n([C@H]2C[C@H](O)[C@@H](CO)O2)cc1I [5-iodo-dC, 5-iodo-2′-deoxycytidine] |  |  |  |  |  |  |  |  |  |  |  |  |  | MIC [4, 15]: ≤ 1.25 µM; MIC [5, 15]: ≤ 1.25 µM; MIC [6, 15]: > 1280 µM; MIC [7, 15]: ≤ 1.25 µM; MIC [8, 15]: ≤ 1.25 µM; MIC [9, 15]: ≤ 1.25 µM; MIC [10, 15]: ≤ 1.25 µM; MIC [11, 15]: > 1280 µM; MIC [12, 15]: ≤ 1.25 µM; MIC [13, 15]: > 1280 µM
5 | Nc1nc(O)nc2c1ncn2[C@H]1C[C@H](O)[C@@H](CO)O1 [disoG, 2-hydroxy-6-amino-9-(2′-deoxy-β-D-ribofuranosyl)purine] | > (no toxicity could be detected at the highest analogue concentration, 1.28 mM) | > (no toxicity could be detected at the highest analogue concentration, 1.28 mM) |  | > (no toxicity could be detected at the highest analogue concentration, 1280 microM) | > (no toxicity could be detected at the highest analogue concentration, 1280 microM) | > (no toxicity could be detected at the highest analogue concentration, 1280 microM) | > (no toxicity could be detected at the highest analogue concentration, 1280 microM) | > (no toxicity could be detected at the highest analogue concentration, 1280 microM) | > (no toxicity could be detected at the highest analogue concentration, 1280 microM) | > (no toxicity could be detected at the highest analogue concentration, 1280 microM) | > (no toxicity could be detected at the highest analogue concentration, 1280 microM) | > (no toxicity could be detected at the highest analogue concentration, 1280 microM) | > (no toxicity could be detected at the highest analogue concentration, 1280 microM) | frequency of colonies on solid rich medium with trimethoprim and thymidine after exposure ([14]; no colony in the absence of promutagenic nucleoside): ~10^−8; Frequency of mutation detected C → A, codon 133 GAC, Asp → Glu ([14]; sequenced mutant plasmids obtained independently): 4/4
